Source: the Kinase Knowledgebase extract (Sharma et al. 2016)
pIC50: −log10 of the molar value. “And” between values parts separate entries of the source, which are not always exact repeats. Equal entries are not always repeated.

Columns and labels:
EGFR (human) [1] = target: EGFR (human) (UniProt P00533); details: a431
EGFR (human) [2] = target: EGFR (human) (UniProt P00533); details: igrov-1
EGFR (human) [3] = target: EGFR (human) (UniProt P00533); details: skov-3
EGFR = EGFR (UniProt P00533)
EGFR (human) [4] = target: EGFR (human) (UniProt P00533); details: a431; remark: listed apart in the source
EGFR (mouse) = EGFR (mouse) (UniProt P00533); details: nih3t3

EGFR (human), sequence (P00533 whole entry, looked up): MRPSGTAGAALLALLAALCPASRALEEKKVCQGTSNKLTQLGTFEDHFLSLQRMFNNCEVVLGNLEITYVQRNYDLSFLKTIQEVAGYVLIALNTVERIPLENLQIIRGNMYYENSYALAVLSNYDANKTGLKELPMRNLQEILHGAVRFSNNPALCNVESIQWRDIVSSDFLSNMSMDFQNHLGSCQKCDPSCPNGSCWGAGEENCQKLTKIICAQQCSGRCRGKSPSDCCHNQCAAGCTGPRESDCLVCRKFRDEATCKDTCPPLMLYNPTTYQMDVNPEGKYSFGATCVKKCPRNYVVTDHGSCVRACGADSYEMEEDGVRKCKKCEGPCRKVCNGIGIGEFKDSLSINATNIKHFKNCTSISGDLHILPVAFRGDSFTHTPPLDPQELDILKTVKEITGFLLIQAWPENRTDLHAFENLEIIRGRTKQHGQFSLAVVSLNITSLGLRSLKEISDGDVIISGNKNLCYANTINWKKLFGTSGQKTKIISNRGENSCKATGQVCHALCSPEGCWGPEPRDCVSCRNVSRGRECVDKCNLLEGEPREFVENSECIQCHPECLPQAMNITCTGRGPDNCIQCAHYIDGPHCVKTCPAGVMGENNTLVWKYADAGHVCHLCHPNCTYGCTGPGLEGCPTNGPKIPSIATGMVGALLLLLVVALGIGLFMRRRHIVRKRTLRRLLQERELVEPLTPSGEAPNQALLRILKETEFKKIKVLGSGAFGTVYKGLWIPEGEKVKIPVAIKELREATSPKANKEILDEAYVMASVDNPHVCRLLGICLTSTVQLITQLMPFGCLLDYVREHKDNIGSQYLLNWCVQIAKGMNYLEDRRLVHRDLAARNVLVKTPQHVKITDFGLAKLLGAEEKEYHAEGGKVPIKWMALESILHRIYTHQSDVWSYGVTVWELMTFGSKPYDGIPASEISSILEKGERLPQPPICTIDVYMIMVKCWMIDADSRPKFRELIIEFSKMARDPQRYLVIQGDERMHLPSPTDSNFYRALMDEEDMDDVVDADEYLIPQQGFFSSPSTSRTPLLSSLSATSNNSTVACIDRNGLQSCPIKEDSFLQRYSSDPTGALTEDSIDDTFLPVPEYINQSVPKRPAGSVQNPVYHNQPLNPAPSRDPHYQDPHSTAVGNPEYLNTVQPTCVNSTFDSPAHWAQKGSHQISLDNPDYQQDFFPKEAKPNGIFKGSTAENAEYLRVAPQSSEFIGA
EGFR, sequence (P00533 whole entry, looked up): as above

| pIC50 (EGFR (human) [1]) | pIC50 (EGFR (human) [2]) | pIC50 (EGFR (human) [3]) | pIC50 (EGFR) | pIC50 (EGFR (human) [4]) | pIC50 (EGFR (mouse)) | SMILES |
| --- | --- | --- | --- | --- | --- | --- |
| 5.44 | 5.21 | 4.66 | 4.57 | 4.00 and < 4.00 |  | CC1=CCC[C@]23O[C@H]2[C@@H](OC3=O)C2=C(C1)C(=O)C=CC2=O |
| 4.80 | 4.65 | 4.39 |  | 4.66 and 4.00 | 5.08 | CC(=O)Oc1ccc(OC(C)=O)c2c1CC(C)=CCC[C@]13O[C@H]1[C@H]2OC3=O |
| < 4.00 | < 4.00 | < 4.00 |  |  |  | COc1ccc(OC)c2c1CC(C)=CCC[C@]13O[C@H]1[C@H]2OC3=O |
| 7.00 | 6.10 | 6.00 | 5.26 |  | 7.70 | CC1=CCC[C@]23O[C@H]2[C@@H](OC3=O)C2=C(C1)C(=O)C(O)=CC2=O |
|  |  |  | 4.59 |  |  | CC1=CCC[C@]23O[C@H]2[C@@H](OC3=O)c2c(O)ccc(O)c2C1 |
